According to the supplement of paper PMC10733146:

How the values were obtained:
Assay in all cases: viability relative to DMSO control (fraction); higher = less drug effect (more viable cells)
Conditions in all cases: 48 h
Pralatrexate = compound: C#CCC(Cc1cnc2nc(N)nc(N)c2n1)c1ccc(C(=O)N[C@@H](CCC(=O)O)C(=O)O)cc1 [Pralatrexate]
Method in brief: (§1)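 Using 384-well plates with compounds already plated at five concentrations, one well per concentration, 4 × 10^4 primary mononuclear tumour cells were added per well. Cells were Ficoll-isolated from blood or bone marrow or came from processed lymph node, fresh or cryopreserved. They were kept for 48 h at 37 °C and 5% CO2 in RPMI-1640 supplemented with penicillin/streptomycin, L-glutamine and human serum, and viability was read as CellTiter-Glo luminescence relative to the median of 16 inner DMSO wells.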

Pacritinib = compound: C1=N/C2=N/c3ccc(OCCN4CCCC4)c(c3)COC/C=C/COCc3cccc(c3)C(=C1)N2 [Pacritinib]
Method in brief: as §1

Idarubicin = compound: CC(=O)[C@]1(O)Cc2c(O)c3c(c(O)c2[C@@H](O[C@H]2C[C@H](N)[C@H](O)[C@H](C)O2)C1)C(=O)c1ccccc1C3=O [Idarubicin]
Method in brief: as §1

[1] = compound: CC(C)(C)OC(=O)Nc1ccc(-c2cc(C(=O)NCCCCCCC(=O)NO)no2)cc1
Method in brief: as §1

Bortezomib = compound: CC(C)C[C@H](NC(=O)[C@H](Cc1ccccc1)NC(=O)c1cnccn1)B(O)O [Bortezomib]
Method in brief: as §1

Vemurafenib = compound: CCCS(=O)(=O)Nc1ccc(F)c(C(=O)c2c[nH]c3ncc(-c4ccc(Cl)cc4)cc23)c1F [Vemurafenib]
Method in brief: as §1

Birinapant = compound: CC[C@H](NC(=O)[C@H](C)NC)C(=O)N1C[C@@H](O)C[C@H]1Cc1c(-c2[nH]c3cc(F)ccc3c2C[C@@H]2C[C@H](O)CN2C(=O)[C@H](CC)NC(=O)[C@H](C)NC)[nH]c2cc(F)ccc12 [Birinapant]
Method in brief: as §1

Ribociclib = compound: CN(C)C(=O)c1cc2cnc(Nc3ccc(N4CCNCC4)cn3)nc2n1C1CCCC1 [Ribociclib]
Method in brief: as §1

Nelarabine = compound: COc1nc(N)nc2c1ncn2[C@@H]1O[C@H](CO)[C@@H](O)[C@@H]1O [Nelarabine]
Method in brief: as §1

Panobinostat = compound: Cc1[nH]c2ccccc2c1CCNCc1ccc(/C=C/C(=O)NO)cc1 [Panobinostat]
Method in brief: as §1

Imatinib = compound: Cc1ccc(NC(=O)c2ccc(CN3CCN(C)CC3)cc2)cc1Nc1nccc(-c2cccnc2)n1 [Imatinib]
Method in brief: as §1

Nilotinib = compound: Cc1cn(-c2cc(NC(=O)c3ccc(C)c(Nc4nccc(-c5cccnc5)n4)c3)cc(C(F)(F)F)c2)cn1 [Nilotinib]
Method in brief: as §1

AZD7762 = compound: NC(=O)Nc1cc(-c2cccc(F)c2)sc1C(=O)N[C@H]1CCCNC1 [AZD7762]
Method in brief: as §1

Iniparib = compound: NC(=O)c1ccc(I)c([N+](=O)[O-])c1 [Iniparib]
Method in brief: as §1

[2] = compound: OCc1ccc(-c2ccc(-c3ccc(CO)s3)o2)s1
Method in brief: as §1

primary ALL patient cells (S088)
viability (Pralatrexate; 0.024 µM): 1.07 | viability (Pralatrexate; 0.12 µM): 0.937 | viability (Pralatrexate; 0.6 µM): 0.927 | viability (Pralatrexate; 3 µM): 0.991 | viability (Pralatrexate; 15 µM): 0.917 | viability (Pacritinib; 0.024 µM): 0.868 | viability (Pacritinib; 0.12 µM): 0.843 | viability (Pacritinib; 0.6 µM): 0.707 | viability (Pacritinib; 3 µM): 0.287 | viability (Pacritinib; 15 µM): 0.0205 | viability (Idarubicin; 0.024 µM): 0.341 | viability (Idarubicin; 0.12 µM): 0.0818 | viability (Idarubicin; 0.6 µM): 0.0274 | viability (Idarubicin; 3 µM): 0.0177 | viability (Idarubicin; 15 µM): 0.0163 | viability ([1]; 0.024 µM): 0.612 | viability ([1]; 0.12 µM): 0.528 | viability ([1]; 0.6 µM): 0.264 | viability ([1]; 3 µM): 0.127 | viability ([1]; 15 µM): 0.063 | viability (Bortezomib; 0.008 µM): 1.02 | viability (Bortezomib; 0.04 µM): 0.948 | viability (Bortezomib; 0.2 µM): 0.906 | viability (Bortezomib; 1 µM): 0.92 | viability (Bortezomib; 5 µM): 0.916 | viability (Vemurafenib; 0.024 µM): 0.986 | viability (Vemurafenib; 0.12 µM): 0.933 | viability (Vemurafenib; 0.6 µM): 1.08 | viability (Vemurafenib; 3 µM): 1.43 | viability (Vemurafenib; 15 µM): 1.78 | viability (Birinapant; 0.0008 µM): 0.577 | viability (Birinapant; 0.004 µM): 0.477 | viability (Birinapant; 0.02 µM): 0.379 | viability (Birinapant; 0.1 µM): 0.316 | viability (Birinapant; 0.5 µM): 0.229 | viability (Ribociclib; 0.024 µM): 0.713 | viability (Ribociclib; 0.12 µM): 0.679 | viability (Ribociclib; 0.6 µM): 0.621 | viability (Ribociclib; 3 µM): 0.487 | viability (Ribociclib; 15 µM): 0.357 | viability (Nelarabine; 0.024 µM): 0.974 | viability (Nelarabine; 0.12 µM): 0.98 | viability (Nelarabine; 0.6 µM): 0.967 | viability (Nelarabine; 3 µM): 0.886 | viability (Nelarabine; 15 µM): 0.75 | viability (Panobinostat; 0.00064 µM): 0.699 | viability (Panobinostat; 0.0032 µM): 0.266 | viability (Panobinostat; 0.016 µM): 0.115 | viability (Panobinostat; 0.08 µM): 0.0993 | viability (Panobinostat; 0.4 µM): 0.0891 | viability (Imatinib; 0.016 µM): 1.08 | viability (Imatinib; 0.4 µM): 1.04 | viability (Imatinib; 10 µM): 1.24 | viability (Nilotinib; 0.016 µM): 1.16 | viability (Nilotinib; 0.08 µM): 1.16 | viability (Nilotinib; 0.4 µM): 1.14 | viability (Nilotinib; 2 µM): 1.22 | viability (Nilotinib; 10 µM): 1.26 | viability (AZD7762; 0.024 µM): 0.488 | viability (AZD7762; 0.12 µM): 0.38 | viability (AZD7762; 0.6 µM): 0.256 | viability (AZD7762; 3 µM): 0.227 | viability (AZD7762; 15 µM): 0.189 | viability (Iniparib; 0.024 µM): 1.15 | viability (Iniparib; 0.12 µM): 1.09 | viability (Iniparib; 0.6 µM): 1.04 | viability (Iniparib; 3 µM): 1 | viability (Iniparib; 15 µM): 0.898 | viability ([2]; 0.024 µM): 0.359 | viability ([2]; 0.12 µM): 0.306 | viability ([2]; 0.6 µM): 0.205 | viability ([2]; 3 µM): 0.128 | viability ([2]; 15 µM): 0.0223

primary FL patient cells (S022)
viability (Pralatrexate; 0.024 µM): 1 | viability (Pralatrexate; 0.12 µM): 0.996 | viability (Pralatrexate; 0.6 µM): 1 | viability (Pralatrexate; 3 µM): 1.04 | viability (Pralatrexate; 15 µM): 1.02 | viability (Pacritinib; 0.024 µM): 0.96 | viability (Pacritinib; 0.12 µM): 1.09 | viability (Pacritinib; 0.6 µM): 0.998 | viability (Pacritinib; 3 µM): 0.429 | viability (Pacritinib; 15 µM): 0.0378 | viability (Idarubicin; 0.024 µM): 0.94 | viability (Idarubicin; 0.12 µM): 0.509 | viability (Idarubicin; 0.6 µM): 0.178 | viability (Idarubicin; 3 µM): 0.182 | viability (Idarubicin; 15 µM): 0.0171 | viability ([1]; 0.024 µM): 0.921 | viability ([1]; 0.12 µM): 0.849 | viability ([1]; 0.6 µM): 0.939 | viability ([1]; 3 µM): 0.84 | viability ([1]; 15 µM): 0.204 | viability (Bortezomib; 0.008 µM): 1 | viability (Bortezomib; 0.04 µM): 1.05 | viability (Bortezomib; 0.2 µM): 0.957 | viability (Bortezomib; 1 µM): 0.931 | viability (Bortezomib; 5 µM): 0.885 | viability (Vemurafenib; 0.024 µM): 0.992 | viability (Vemurafenib; 0.12 µM): 1.17 | viability (Vemurafenib; 0.6 µM): 0.965 | viability (Vemurafenib; 3 µM): 1.05 | viability (Vemurafenib; 15 µM): 1.22 | viability (Birinapant; 0.0008 µM): 0.862 | viability (Birinapant; 0.004 µM): 0.874 | viability (Birinapant; 0.02 µM): 0.965 | viability (Birinapant; 0.1 µM): 0.884 | viability (Birinapant; 0.5 µM): 0.903 | viability (Ribociclib; 0.024 µM): 1.01 | viability (Ribociclib; 0.12 µM): 1.01 | viability (Ribociclib; 0.6 µM): 1.02 | viability (Ribociclib; 3 µM): 0.941 | viability (Ribociclib; 15 µM): 0.737 | viability (Nelarabine; 0.024 µM): 1.03 | viability (Nelarabine; 0.12 µM): 1.1 | viability (Nelarabine; 0.6 µM): 0.93 | viability (Nelarabine; 3 µM): 0.902 | viability (Nelarabine; 15 µM): 0.811 | viability (Panobinostat; 0.00064 µM): 0.899 | viability (Panobinostat; 0.0032 µM): 0.843 | viability (Panobinostat; 0.016 µM): 0.514 | viability (Panobinostat; 0.08 µM): 0.23 | viability (Panobinostat; 0.4 µM): 0.17 | viability (Imatinib; 0.08 µM): 1.06 | viability (Imatinib; 0.4 µM): 1.05 | viability (Imatinib; 2 µM): 0.946 | viability (Imatinib; 10 µM): 0.909 | viability (Nilotinib; 0.016 µM): 0.974 | viability (Nilotinib; 0.08 µM): 1.1 | viability (Nilotinib; 0.4 µM): 0.985 | viability (Nilotinib; 2 µM): 0.933 | viability (Nilotinib; 10 µM): 1.03 | viability (AZD7762; 0.024 µM): 0.724 | viability (AZD7762; 0.12 µM): 0.79 | viability (AZD7762; 0.6 µM): 0.725 | viability (AZD7762; 3 µM): 0.785 | viability (AZD7762; 15 µM): 0.655 | viability (Iniparib; 0.024 µM): 1.1 | viability (Iniparib; 0.12 µM): 0.916 | viability (Iniparib; 0.6 µM): 0.945 | viability (Iniparib; 3 µM): 0.937 | viability (Iniparib; 15 µM): 0.92 | viability ([2]; 0.024 µM): 0.946 | viability ([2]; 0.12 µM): 1.05 | viability ([2]; 0.6 µM): 0.969 | viability ([2]; 3 µM): 1.02 | viability ([2]; 15 µM): 0.512
